Test [1] deals with human neuroblastoma SK-N-MC cells. As to the kind of experiment: Protection against neuronal death induced by oxidative stress (xanthine/xanthine oxidase), WST-1. Format: cell-based. The method, then: (§1) The assay was performed on human neuroblastoma SK-N-MC cells in culture from the American Type Culture Collection (ATCC), in all cases strict rules of sterility were followed and the manipulation was performed in class II biological safety cabinets following European standard EN 12469. The cells were maintained in the following culture medium: Minimum Essential Medium Eagle (MEM) supplemented with 1 mM sodium pyruvate, 2 mM L-glutamine, 0.1 mM non-essential amino acids, 0.05 mg/ml gentamicin and 10% fetal bovine serum.
The inhibition caused by compound NST0037 of cell death caused by treatment with xanthine/xanthine oxidase which generates oxidative damage (causes free radicals such as hydrogen peroxide, superoxide anion, hydroxyl radical), which triggers cell death, was analyzed. These cells, not exceeding 15 passages, were seeded on 96-well plates treated for adherent cells with a cell concentration of 5×10^4 cells/well; 3 wells of the plate were seeded for each condition of the assay.
After 24 hours of cell incubation at 37° C. and 5% CO2, the cell treatments were performed with 100 μl of total volume for the following conditions: • Control: culture medium (medium) • Xanthine/xanthine oxidase (XXO): medium plus 10 μM xanthine/60 mU/mL xanthine oxidase, causing the death of 50% of the cells. • XXO plus NST0037: medium plus XXO (10 μM/60 mU/mL) plus NST0037 at 1, 4, 10, 20, 40 or 100 μM.
The cells were incubated (at 37° C. and 5% CO2) with these treatments for 22 hours, after which time the WST-1 reagent (Roche) was added. The Test WST-1 is based on the measurement of metabolic activity. Cell damage causes the loss of the ability of cells to obtain the energy necessary to maintain their metabolic functions and cell growth, therefore the metabolically active (live) cells reduce tetrazolium salt to formazan by means of the succinate-tetrazolium reductase system (of the mitochondrial respiratory chain). The formazan which is formed can be detected colorimetrically since it has an absorbance of 440 nm. The reading was taken in a plate reader at 440 nm 2 hours after adding the reagent.
The assay was performed on human neuroblastoma SK-N-MC cells in culture from the American Type Culture Collection (ATCC), in all cases strict rules of sterility were followed and the manipulation was performed in class II biological safety cabinets following European standard EN 12469. […]
The effect of mevalonate on the protection caused by compound NST0037 against cell death caused by the treatment with xanthine/xanthine oxidase generating oxidative damage and cell death was analyzed. […]

For test [2] the test system is unchanged. As to the kind of experiment: Inhibition of camptothecin-induced apoptosis by flow cytometry (sub-G1). Format: cell-based. Particulars: pretreatment 40 μM NST0037 with 100 μM mevalonate. The procedure:
as §1
The inhibition caused by compound NST0037 against apoptosis (programmed cell death) caused by treatment with camptothecin which inhibits the enzyme Topoisomerase I, which prevents DNA duplication and triggers apoptotic cell death, was analyzed. These cells, not exceeding 15 passages, were seeded on 6-well plates treated for adherent cells with a cell concentration of 8×10^5 cells/well and 7×10^5 cells/well for the assay with pretreatment; 2 wells of the plate were seeded for each condition of the assay.
After 24 hours of cell incubation at 37° C. and 5% CO2, the cell treatments were performed with 2 ml of total volume for the following conditions: • Control: culture medium (medium) • Camptothecin: medium plus camptothecin 50 μM. • Camptothecin plus Z-VAD-fmk: medium plus 50 μM camptothecin plus 50 μM Z-VAD-fmk, as positive inhibition control. • Camptothecin plus NST0037: medium plus 50 μM camptothecin plus NST0037 at 10, 40 or 100 μM.
In the assay with pretreatment, the cells were previously treated with 40 μM of NST0037, 100 μM of mevalonate or both together for 24 hours and then they were treated with 50 μM camptothecin, the rest of the procedure was similar to the assay without pretreatment.
The cells were incubated (at 37° C. and 5% CO2) with these treatments for 6 hours, after which time they were collected along with their culture medium and centrifuged at 300×g for 5 minutes. The medium was removed, a washing was performed with PBS and the cells were fixed for 2 minutes with 500 μl of 70% ethanol at −20° C. Once fixed, they were centrifuged at 400×g for 5 minutes, washed with PBS and 0.05 mg/ml propidium iodide, diluted in cycling buffer (0.1% sodium citrate, 0.3% Nonidet P-40 and 0.02 mg/ml RNase) were added and they were incubated for 1 hour at 37° C. After this time they were analyzed by flow cytometry, comparing the fluorescence of propidium iodide against the amount of DNA. The percentage of apoptosis was measured on the sub-G1 region of each of the conditions.
Background: Flow cytometry measures light scatter and fluorescence of single cells or particles in a stream.

A further test deals with caspase 3/7. As to the kind of experiment: Inhibition of camptothecin-induced activation of caspase 3/7 in SK-N-MC cells. Particulars: 100 μM mevalonate with NST0037 pretreatment. The test is classed as cell-based, human. The method, then:
The assay was performed on human neuroblastoma SK-N-MC cells in culture from the American Type Culture Collection (ATCC), in all cases strict rules of sterility were followed and the manipulation was performed in class II biological safety cabinets following European standard EN 12469. The cells were maintained in the following culture medium: Minimum Essential Medium Eagle (MEM) supplemented with 1 mM sodium pyruvate, 2 mM L-glutamine, 0.1 mM non-essential amino acids, 0.05 mg/ml gentamicin and 10% fetal bovine serum. The induction of apoptosis on the cells in culture was performed by means of incubation with camptothecin (CPT), which triggers cell apoptosis activation. The apoptosis was determined by means of the measurement of the activation of effector caspases, caspase 3 or caspase 7, for which a kit for the fluorometric detection of active caspase 3/7 (Apo-ONE® Homogeneous Caspase-3/7, Promega) was used. The active caspase 3 or 7 of the cells cause the rupture of a substrate, which leads to fluorescence emission, which is read by means of a fluorometer. The effect of the pretreatment of compound NST0037 at 10 and 40 μM on the activation of caspase 3/7 caused by 50 μM of camptothecin (CPT) in the SK-N-MC cells was thus analyzed. These cells, not exceeding 15 passages, were seeded on 96-well plates treated for adherent cells with a cell concentration of 5×10^4 cells/well, 3 wells of the plate were seeded for each condition of the assay. After 24 hours of cell incubation at 37° C. and 5% CO2, the pretreatment with NST0037 at 10 and 40 μM was performed. […] On the following day, fluorescence was measured (499/521 nm, […]).

In the case of `CC(O)(CCO)CC(=O)O` (stereo not shown) [mevalonate, reference compound], the “effect of mevalonate on protection by NST0037 against death by XXO” value in test [1] (40 μM NST0037 plus mevalonate at 10, 40 and 100 μM) is reported as “inhibited”. Also, the “protection by mevalonate alone against death by XXO” value in test [1] (mevalonate at 10, 40 or 100 μM) was “does not protect against death by XXO”. Also, the “effect of mevalonate on the protection exerted by NST0037 against apoptosis” value in test [2] is given as “partially inhibited”. The “effect of mevalonate on inhibition of caspase 3/7 by NST0037” value with caspase 3/7 is given as “reverted this inhibition”.

(Values after patent US20140309295A1, “ANTIEPILEPTIC, HYPOCHOLESTEROLEMIC AND NEUROPROTECTIVE COMPOUND” (NEURON BIOPHARMA, S.A., priority 2009, published 2014).)
